One assay concerns the target T1, FLT-3 (Homo sapiens, UniProt P36888).
T1 construct: 0.02% BSA and 3 nM FLT-3
T1 sequence (P36888 27-993): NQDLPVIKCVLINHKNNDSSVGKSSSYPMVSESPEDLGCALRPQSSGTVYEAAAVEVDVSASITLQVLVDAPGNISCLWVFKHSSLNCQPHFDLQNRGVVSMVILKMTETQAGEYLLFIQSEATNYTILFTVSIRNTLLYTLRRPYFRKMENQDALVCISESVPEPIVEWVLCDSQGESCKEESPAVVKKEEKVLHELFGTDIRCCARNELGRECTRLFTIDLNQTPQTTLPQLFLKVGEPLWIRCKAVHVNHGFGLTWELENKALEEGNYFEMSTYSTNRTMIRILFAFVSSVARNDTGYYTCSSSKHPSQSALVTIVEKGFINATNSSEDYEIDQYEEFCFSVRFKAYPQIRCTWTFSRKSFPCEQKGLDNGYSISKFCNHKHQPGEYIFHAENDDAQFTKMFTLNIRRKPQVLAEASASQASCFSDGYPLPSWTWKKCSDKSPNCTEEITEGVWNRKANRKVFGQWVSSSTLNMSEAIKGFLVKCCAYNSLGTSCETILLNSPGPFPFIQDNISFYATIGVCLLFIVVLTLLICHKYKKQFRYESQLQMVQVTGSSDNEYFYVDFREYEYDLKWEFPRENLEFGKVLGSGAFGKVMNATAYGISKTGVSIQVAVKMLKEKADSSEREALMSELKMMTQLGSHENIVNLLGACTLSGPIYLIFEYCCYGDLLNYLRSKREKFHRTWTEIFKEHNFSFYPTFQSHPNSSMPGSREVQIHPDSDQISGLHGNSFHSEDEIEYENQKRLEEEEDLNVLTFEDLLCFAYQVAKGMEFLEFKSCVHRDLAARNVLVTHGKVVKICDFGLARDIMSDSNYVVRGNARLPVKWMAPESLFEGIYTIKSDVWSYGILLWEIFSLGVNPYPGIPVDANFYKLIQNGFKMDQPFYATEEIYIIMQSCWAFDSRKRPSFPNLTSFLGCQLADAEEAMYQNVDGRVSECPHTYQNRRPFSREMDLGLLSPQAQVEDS
In words: Inhibition of FLT-3, radiometric filter-binding assay. The note with it: 90 μM ATP, pE4Y substrate. Type of assay: biochemical. The procedure:
Compounds were screened for their ability to inhibit FLT-3 activity using a radiometric filter-binding assay. This assay monitors the ^33P incorporation into a substrate poly(Glu, Tyr) 4:1 (pE4Y). Reactions were carried out in a solution containing 100 mM HEPES (pH 7.5), 10 mM MgCl2, 25 mM NaCl, 1 mM DTT, 0.01% BSA and 2.5% DMSO. Final substrate concentrations in the assay were 90 μM ATP and 0.5 mg/mL pE4Y (both from Sigma Chemicals, St Louis, Mo.). The final concentration of compounds is generally between 0.01 and 5 μM. Typically, a 12-point titration was conducted by preparing serial dilutions from 10 mM DMSO stock of test compound. Reactions were carried out at room temperature.
Two assay solutions were prepared. Solution 1 contains 100 mM HEPES (pH 7.5), 10 mM MgCl2, 25 mM NaCl, 1 mg/ml pE4Y and 180 μM ATP (containing 0.3 μCi of [γ-^33P]ATP for each reaction). Solution 2 contains 100 mM HEPES (pH 7.5), 10 mM MgCl2, 25 mM NaCl, 2 mM DTT, 0.02% BSA and 3 nM FLT-3. The assay was run on a 96 well plate by mixing 50 μL each of Solution1 and 2.5 mL of the test compounds. The reaction was initiated with Solution2. After incubation for 20 minutes at room temperature, the reaction was stopped with 50 μL of 20% TCA containing 0.4 mM of ATP. All of the reaction volume was then transferred to a filter plate and washed with 5% TCA by a Harvester9600 from TOMTEC (Hamden, Conn.). The amount of ^33P incorporation into pE4y was analyzed by a Packard TopCount Microplate Scintillation Counter (Meriden, Conn.). The data was fitted using Prism software to get an IC50 or Ki.

A further assay concerns the target KDR (Homo sapiens, UniProt P35968). In words: Inhibition of KDR, coupled enzyme assay. The note with it: 300 μM ATP, 37° C. Type of assay: biochemical. As for the experimental part:
Compounds were screened for their ability to inhibit KDR using a standard coupled enzyme assay (Fox et al., Protein Sci., (1998) 7, 2249). Assays were carried out in a mixture of 200 mM HEPES 7.5, 10 mM MgCl2, 25 mM NaCl, 1 mM DTT and 1.5% DMSO. Final substrate concentrations in the assay were 300 μM ATP (Sigma Chemicals) and 10 μM poly E4Y (Sigma). Assays were carried out at 37° C. and 30 nM KDR. Final concentrations of the components of the coupled enzyme system were 2.5 mM phosphoenolpyruvate, 200 μM NADH, 30 μg/ML pyruvate kinase and 10 μg/ml lactate dehydrogenase.
An assay stock buffer solution was prepared containing all of the reagents listed above, with the exception of ATP and the test compound of interest. 177 μl of the stock solution was placed in a 96 well plate followed by addition of 3 μl of 2 mM DMSO stock containing the test compound (final compound concentration 30 μM). The plate was preincubated for about 10 minutes at 37° C. and the reaction initiated by addition of 20 μl of ATP (final concentration 300 μM). Rates of reaction were obtained using a Molecular Devices plate reader (Sunnyvale, Calif.) over a 5 minute read time at 37° C.

[1] abbreviates: given as IC50 or Ki, read-out: IC50 or Ki values (FLT-3).

Several values for one entry are separate records, joined by “and”; a condition that tells them apart may be missing. Equal entries are not always repeated. Where two headings read alike, the source gives them in different places.

The source of these data is US7598245B2 (Vertex Pharmaceuticals Incorporated, priority 2003, dated 2009).

Sequence of KDR (P35968 20-1356): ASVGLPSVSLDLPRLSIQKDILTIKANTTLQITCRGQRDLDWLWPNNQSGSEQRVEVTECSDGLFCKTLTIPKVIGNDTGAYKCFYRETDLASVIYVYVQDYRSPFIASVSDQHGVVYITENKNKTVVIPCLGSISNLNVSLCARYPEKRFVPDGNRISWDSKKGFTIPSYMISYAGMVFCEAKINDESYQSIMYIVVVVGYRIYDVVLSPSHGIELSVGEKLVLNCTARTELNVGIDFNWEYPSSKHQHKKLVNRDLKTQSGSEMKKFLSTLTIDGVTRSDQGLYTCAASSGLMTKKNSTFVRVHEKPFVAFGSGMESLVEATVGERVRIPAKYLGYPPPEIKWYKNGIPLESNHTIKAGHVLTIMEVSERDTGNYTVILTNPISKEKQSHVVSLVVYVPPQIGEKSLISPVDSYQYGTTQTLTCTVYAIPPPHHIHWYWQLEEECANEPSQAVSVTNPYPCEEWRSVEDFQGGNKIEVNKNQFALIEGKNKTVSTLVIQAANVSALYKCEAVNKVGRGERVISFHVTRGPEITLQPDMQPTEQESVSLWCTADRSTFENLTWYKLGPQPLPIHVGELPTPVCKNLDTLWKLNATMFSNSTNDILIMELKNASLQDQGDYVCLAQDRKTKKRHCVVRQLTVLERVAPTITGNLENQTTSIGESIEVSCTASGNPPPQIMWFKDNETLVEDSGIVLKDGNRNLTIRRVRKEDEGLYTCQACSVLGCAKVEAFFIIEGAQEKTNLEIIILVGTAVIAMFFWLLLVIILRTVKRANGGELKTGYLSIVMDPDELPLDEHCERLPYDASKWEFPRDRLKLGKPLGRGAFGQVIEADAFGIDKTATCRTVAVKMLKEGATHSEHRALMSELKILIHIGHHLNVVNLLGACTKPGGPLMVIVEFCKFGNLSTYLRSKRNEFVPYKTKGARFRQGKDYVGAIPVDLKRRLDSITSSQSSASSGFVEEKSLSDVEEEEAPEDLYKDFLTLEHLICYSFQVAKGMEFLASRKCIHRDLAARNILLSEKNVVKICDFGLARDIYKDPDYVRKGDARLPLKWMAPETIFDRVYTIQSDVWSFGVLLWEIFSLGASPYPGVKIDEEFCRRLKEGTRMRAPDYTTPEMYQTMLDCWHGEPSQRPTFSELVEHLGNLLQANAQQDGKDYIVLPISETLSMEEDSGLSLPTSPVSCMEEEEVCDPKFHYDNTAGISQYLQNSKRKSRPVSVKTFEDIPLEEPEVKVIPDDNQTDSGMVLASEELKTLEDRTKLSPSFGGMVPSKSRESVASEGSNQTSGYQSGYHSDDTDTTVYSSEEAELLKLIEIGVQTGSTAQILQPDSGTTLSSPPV

Regarding `CC(=O)N1[C@H](C)CN(c2cc(-n3cnc(Nc4ccc(NC(=O)NC(C)C)cc4)n3)ccn2)C[C@@H]1C` [Compound I-100], the inhibition constant Ki (in general, a dissociation constant, usually derived from enzyme kinetics or from competition with a known ligand) on FLT-3 (read-out: Ki values (FLT-3)) was 1 to 30 nM; at KDR, under 100 nM. `N#CCC(=O)N1CCCN(c2cc(-n3cnc(Nc4ccccc4)n3)ccn2)CC1` [Compound I-72]: the Ki is under 60 nM at FLT-3 (read-out: Ki values (FLT-3)) and 100 to 1000 nM on KDR. `COc1cc(Nc2ncn(-c3ccc(C#N)cc3)n2)cc(OC)c1OC` [Compound I-43]: the Ki is under 100 nM on FLT-3 (setting [1]) and 1 to 30 nM at FLT-3 (read-out: Ki values (FLT-3)). In turn, `O=C(Nc1cc(-n2cnc(Nc3ccccc3)n2)ccn1)C1CCCCC1` [Compound I-93] displayed a Ki on KDR of 100 to 1000 nM. Consider `c1ccc(Nc2ncn(-c3ccnc(NC4CCCCC4)c3)n2)cc1` [Compound I-50], for which the values for the Ki at FLT-3 (read-out: Ki values (FLT-3)) and at KDR were 1 to 30 nM and 100 to 1000 nM, respectively. As for `CCOc1cccc(Nc2ncn(-c3ccccc3)n2)c1` [Compound I-45], the Ki on FLT-3 (setting [1]) was under 100 nM; on FLT-3 (read-out: Ki values (FLT-3)) it was 1 to 30 nM. Turning to `COC(=O)Nc1ccc(Nc2ncn(-c3ccnc(N4C[C@@H](C)N(C(C)=O)[C@@H](C)C4)c3)n2)cc1` [Compound I-78], the values for the inhibitory constant (Ki) at FLT-3 (read-out: Ki values (FLT-3)) and at KDR were under 60 nM and under 100 nM, respectively. In turn, `OC[C@H]1CCCN(c2cc(-n3cnc(Nc4ccccc4)n3)ccn2)C1` [Compound I-65] registered a Ki at KDR of 100 to 1000 nM.

In the case of `O=C(CC1CCCC1)Nc1cc(-n2cnc(Nc3ccccc3)n2)ccn1` [Compound I-94, 2-Cyclopentyl-N-[4-(3-phenylamino-[1,2,4]triazol-1-yl)-pyridin-2-yl]-acetamide], the results for the Ki on FLT-3 (read-out: Ki values (FLT-3)) and at KDR were 1 to 30 nM and 100 to 1000 nM, respectively. For `O=c1[nH]c2ccccc2n1C1CCN(c2cc(-n3cnc(Nc4ccccc4)n3)ccn2)CC1` [Compound I-63], the Ki is over 200 nM on FLT-3 (read-out: Ki values (FLT-3)) and over 1000 nM on KDR.

Consider `CC(C)C(=O)N1CCCN(c2cc(-n3cnc(Nc4ccccc4)n3)ccn2)CC1` [Compound I-69], for which the Ki on FLT-3 (read-out: Ki values (FLT-3)) was 30 to 200 nM; at KDR, over 1000 nM. Take `CC(=O)N1[C@H](C)CN(c2cc(-n3cnc(Nc4ccc(N5CCN(C(=O)OC(C)(C)C)CC5)cc4)n3)ccn2)C[C@@H]1C` [Compound I-97, 4-(4-{1-[2-(4-Acetyl-3,5-dimethyl-piperazin-1-yl)-pyridin-4-yl]-1H-[1,2,4]triazol-3-ylamino}-phenyl)-piperazine-1-carboxylic acid tert-butyl ester]: the Ki on FLT-3 (read-out: Ki values (FLT-3)) is 1 to 30 nM; at KDR it was under 100 nM. With `CC(C)CCN(C)c1cc(-n2cnc(Nc3ccccc3)n2)ccn1` [Compound I-62, methyl-(3-methyl-butyl)-[4-(3-phenylamino-[1,2,4]triazol-1-yl)-pyridin-2-yl]-amine], the Ki on FLT-3 (read-out: Ki values (FLT-3)) is 1 to 30 nM; at KDR, under 100 nM. For the molecule `CC(=O)N1[C@H](C)CN(c2cc(-n3cnc(Nc4ccc(NC(=O)OCC(C)C)cc4)n3)ccn2)C[C@@H]1C` [Compound I-90], the Ki on FLT-3 (read-out: Ki values (FLT-3)) lay in the range of 30 to 200 nM; at KDR it was 100 to 1000 nM.

For `CCOc1ccc(Nc2ncn(-c3ccccc3)n2)cc1` [Compound I-47], the inhibition constant Ki at FLT-3 (setting [1]) is under 100 nM; on FLT-3 (read-out: Ki values (FLT-3)), 30 to 200 nM. In the case of `c1ccc(-n2cnc(Nc3ccnc(NCCN4CCOCC4)c3)n2)cc1` [Compound I-107], the Ki on FLT-3 (read-out: Ki values (FLT-3)) is 30 to 200 nM; on KDR, over 1000 nM.

With `CC(=O)N1[C@H](C)CN(c2cc(-n3cnc(Nc4ccc(NC(=O)N(C)C)cc4)n3)ccn2)C[C@@H]1C` [Compound I-77, 3-(4-{1-[2-(4-Acetyl-3,5-dimethyl-piperazin-1-yl)-pyridin-4-yl]-1H-[1,2,4]triazol-3-ylamino}-phenyl)-1,1-dimethyl-urea], the Ki at FLT-3 (read-out: Ki values (FLT-3)) is under 60 nM; at KDR, 100 to 1000 nM.

Turning to `c1ccc(Nc2ncn(-c3ccnc(N4CCCCCC4)c3)n2)cc1` [Compound I-73], the Ki is under 60 nM on FLT-3 (read-out: Ki values (FLT-3)) and under 100 nM on KDR. For `CC(=O)N1[C@H](C)CN(c2cc(-n3cnc(Nc4ccc(NC(=O)c5ccco5)cc4)n3)ccn2)C[C@@H]1C` [Compound I-81, Furan-2-carboxylic acid (4-{1-[2-(4-acetyl-3,5-dimethyl-piperazin-1-yl)-pyridin-4-yl]-1H-[1,2,4]triazol-3-ylamino}-phenyl)-amide], the figures for the Ki at FLT-3 (read-out: Ki values (FLT-3)) and on KDR were under 60 nM and under 100 nM, respectively.

For the molecule `CC(=O)N1[C@H](C)CN(c2cc(-n3cnc(Nc4ccc(NC(=O)C(F)(F)F)cc4)n3)ccn2)C[C@@H]1C` [Compound I-79], the Ki is under 60 nM on FLT-3 (read-out: Ki values (FLT-3)) and under 100 nM at KDR. For the molecule `CN(CCO)c1cc(-n2cnc(Nc3ccccc3)n2)ccn1` [Compound I-51], the Ki on FLT-3 (read-out: Ki values (FLT-3)) is under 60 nM; on KDR it was under 100 nM. As to `c1ccc(-n2cnc(Nc3ccc(N4CCOCC4)nc3)n2)cc1` [Compound I-134], the Ki was 30 to 200 nM and > 200 nM at FLT-3 (read-out: Ki values (FLT-3)); 100 to 1000 nM on KDR.

For `CN(Cc1ccccc1)c1cc(-n2cnc(Nc3ccccc3)n2)ccn1` [Compound I-55], the inhibition constant Ki on FLT-3 (read-out: Ki values (FLT-3)) is 1 to 30 nM; on KDR, 100 to 1000 nM. With `O=C(Cc1ccccc1)Nc1cc(-n2cnc(Nc3ccccc3)n2)ccn1` [Compound I-96], the Ki on FLT-3 (read-out: Ki values (FLT-3)) is 1 to 30 nM; at KDR, 100 to 1000 nM. For the molecule `COc1cc(Nc2ncn(-c3ccccc3)n2)cc(OC)c1OC` [Compound I-42], the Ki was under 100 nM on FLT-3 (setting [1]) and 1 to 30 nM on FLT-3 (read-out: Ki values (FLT-3)).

As to `CC(C)Oc1cccc(Nc2ncn(-c3ccccc3)n2)c1` [Compound I-46], the Ki at FLT-3 (setting [1]) was under 100 nM; at FLT-3 (read-out: Ki values (FLT-3)) it was 1 to 30 nM. With `CCN(CCO)c1cc(-n2cnc(Nc3ccccc3)n2)ccn1` [Compound I-54], the Ki on KDR is under 100 nM. As to `c1ccc(-n2cnc(Nc3ccc4c(c3)OCCO4)n2)cc1` [Compound I-44], the Ki at FLT-3 (setting [1]) is under 100 nM; on FLT-3 (read-out: Ki values (FLT-3)), 1 to 30 nM. `c1ccc(Nc2ncn(-c3ccnc(N4CCCCCCC4)c3)n2)cc1` [Compound I-52]: on KDR, the inhibition constant (Ki) was under 100 nM. Consider `CN1CCN(c2ccc(Nc3ncn(-c4ccccc4)n3)cn2)CC1` [Compound I-135], for which the Ki on FLT-3 (read-out: Ki values (FLT-3)) lay within 30 to 200 nM. Take `CC(C)CC(=O)N1CCCN(c2cc(-n3cnc(Nc4ccccc4)n3)ccn2)CC1` [Compound I-70]: the Ki at KDR is over 1000 nM.

Turning to `CN1C(C)(C)CC(Nc2cc(-n3cnc(Nc4ccccc4)n3)ccn2)CC1(C)C` [Compound I-61], on KDR, the Ki was in the range of 100 to 1000 nM. Still for that read-out and setting: the figure for `CN(C)CCCN(C)c1cc(-n2cnc(Nc3ccccc3)n2)ccn1` [Compound I-53] is 100 to 1000 nM.
